Counter-ions that a name gives are not always drawn. Like-named read-outs stand apart in the source and are kept apart here.
Assays:
[1] = tested on: interleukin-1β production; test: Inhibitory activity against interleukin-1β production (LPS-stimulated HL-60 cells, ELISA); format: cell-based; settings: lipopolysaccharide 10 μg/mL, 3 days
Procedure: Inhibitory Activity Against Interleukin-1β Production
HL-60 cells were cultured for 4 days until confluence on RPMI 1640 medium with 10% fetal bovine serum (FBS) added thereto. The medium was centrifuged. The supernatant was discarded, and the cells were then suspended at 1×10^6 cells/mL on RPMI 1640 medium with 3% FBS, and lipopolysaccharide was added to give a final concentration of 10 μg/mL. The culture was inoculated at 1 mL/well to a 24-well plate. A sample compound was added at 1 μL/well, followed by culturing for 3 days. Three days later, the amount of interleukin-1β in each culture was determined by ELISA. Each IC50 value was determined by a comparison in yield with a control to which no test sample was added.

[2] = Water solubility test; format: physicochemical; settings: for Solubility (%): purified water, from amount of water required for dissolution; for Dissolution in amount of added water: 100 mL purified water added
Procedure: Each sample compound was weighed in the amount shown in Table 3, to which purified water was added in 0.05 mL aliquots. The solubility (%) of the compound was determined based on the amount of water required for its dissolution.

[3] = Homo sapiens, 72 h, Table 2, read-out: IL-1β production inhibiting activity IC50
[4] = Homo sapiens, 72 h, Table 1, read-out: IL-1β production inhibiting activity IC50
[5] = Table 1, read-out: IL-1β production inhibiting activity IC50

COc1ccc(-c2cc(CN3CCN(C)CC3)c(=O)n(CC=Cc3ccc(Cl)cc3)n2)cc1F [Example 209, 2-(4-chlorocinnamyl)-6-(3-fluoro-4-methoxyphenyl)-4-(4-methyl-1-piperazinyl)methyl-2H-pyridazin-3-one]
IC50 [1, 3]: 2.8 µM
melting point: 123.9 to 125.5 °C

COc1ccc(-c2cc(CN3CCNCC3)c(=O)n(CC3CC3)n2)cc1F.Cl.Cl [Example 21, 2-cyclopropylmethyl-6-(3-fluoro-4-methoxyphenyl)-4-(1-piperazinyl)methyl-2H-pyridazin-3-one dihydrochloride]
Solubility (%) [2]: >20%
IC50 [1, 4]: 1.01 µM

CC(C)Cn1nc(-c2ccc(F)c(F)c2)cc(CN(CCO)CCO)c1=O.Cl [Example 108, 4-N,N-bis(2-hydroxyethyl)aminomethyl-6-(3,4-difluorophenyl)-2-isobutyl-2H-pyridazin-3-one hydrochloride]
Solubility (%) [2]: >20%
IC50 [1, 5]: 3.44 µM

COc1ccc(-c2cc(CN)c(=O)n(CC3CCCC3)n2)cc1F.Cl [Example 188, 4-aminomethyl-2-cyclopentylmethyl-6-(3-fluoro-4-methoxyphenyl)-2H-pyridazin-3-one hydrochloride]
Solubility (%) [2]: 0.08%

C#CCNCc1cc(-c2ccc(SC)cc2)nn(CC(C)C)c1=O.Cl [Example 163, 2-isobutyl-6-[4-(methylthio)phenyl]-4-propargylaminomethyl-2H-pyridazin-3-one hydrochloride]
IC50 [1, 4]: 2.78 µM
melting point: 197.5 to 198.4 °C

CNC(=O)c1cc(-c2ccc(OC)cc2)nn(CC(C)C)c1=O [compound 2, reference compound]
Dissolution in amount of added water [2]: (insoluble)
Solubility (%) [2]: <0.001%

CSc1ccc(-c2cc(CN3CCN(C)CC3)c(=O)n(CC3CC3)n2)cc1.Cl.Cl [Example 149, 2-cyclopropylmethyl-4-(4-methyl-1-piperazinyl)methyl-6-[4-(methylthio)phenyl]-2H-pyridazin-3-one dihydrochloride]
Solubility (%) [2]: >10%
IC50 [1, 4]: 1.63 µM
melting point: 234.6 to 239.2 °C

COc1ccc(-c2cc(CCCN3CCNCC3)c(=O)n(CC3CC3)n2)cc1F.Cl.Cl [Example 214, 2-cyclopropylmethyl-6-(3-fluoro-4-methoxyphenyl)-4-[3-(1-piperazinyl)propyl]-2H-pyridazin-3-one dihydrochloride]
Solubility (%) [2]: 10%

COc1ccc(-c2cc(CN(C)C)c(=O)n(Cc3ccc(F)c(F)c3)n2)cc1F [Example 208, 2-(3,4-difluorobenzyl)-4-dimethylaminomethyl-6-(3-fluoro-4-methoxyphenyl)-2H-pyridazin-3-one]
IC50 [1, 3]: 6.1 µM
melting point: 129.9 to 130.4 °C

Cc1cc(-c2cc(CCCN)c(=O)n(Cc3ccccc3Cl)n2)ccc1F [Example 227, 4-(3-aminopropyl)-2-(2-chlorobenzyl)-6-(4-fluoro-3-methylphenyl)-2H-pyridazin-3-one]
IC50 [1, 3]: 5.2 µM
melting point: 80 to 85 °C

COc1ccc(-c2cc(CN3CCN(Cc4ccccc4)CC3)c(=O)n(CC3CC3)n2)cc1F.Cl.Cl [Example 18, 4-(4-benzyl-1-piperazinyl)methyl-2-cyclopropylmethyl-6-(3-fluoro-4-methoxyphenyl)-2H-pyridazin-3-one dihydrochloride]
Solubility (%) [2]: 1%
IC50 [1, 4]: 5.4 µM

COc1ccc(-c2cc(CN)c(=O)n(Cc3ccc(Cl)cc3)n2)cc1F.Cl [Example 206, 4-aminomethyl-2-(4-chlorobenzyl)-6-(3-fluoro-4-methoxyphenyl)-2H-pyridazin-3-one hydrochloride]
Solubility (%) [2]: 0.06%

COc1ccc(-c2cc(CCCN)c(=O)n(CC3CC3)n2)cc1F.Cl [Example 217, 4-(3-aminopropyl)-2-cyclopropylmethyl-6-(3-fluoro-4-methoxyphenyl)-2H-pyridazin-3-one hydrochloride]
Solubility (%) [2]: 10%

CSc1ccc(-c2cc(CN(C)C)c(=O)n(CC(C)C)n2)cc1.Cl [Example 161, 4-dimethylaminomethyl-2-isobutyl-6-[4-(methylthio)phenyl]-2H-pyridazin-3-one hydrochloride]
IC50 [1, 4]: 2.78 µM
melting point: 216.8 to 218.4 °C

Cc1cc(-c2cc(CN3CCN(C)CC3)c(=O)n(Cc3ccc(Cl)cc3)n2)ccc1F [Example 222, 2-(4-chlorobenzyl)-6-(4-fluoro-3-methylphenyl)-4-(4-methyl-1-piperazinyl)methyl-2H-pyridazin-3-one]
IC50 [1, 3]: 5.8 µM
melting point: 133.3 to 133.8 °C

COc1ccc(-c2cc(CN3CCN(C)CC3)c(=O)n(Cc3ccc(F)c(F)c3)n2)cc1F [Example 207, 2-(3,4-difluorobenzyl)-6-(3-fluoro-4-methoxyphenyl)-4-(4-methyl-1-piperazinyl)methyl-2H-pyridazin-3-one]
IC50 [1, 3]: 2.7 µM
melting point: 135.4 to 136 °C

Cc1ccc(-c2cc(CN(C)C)c(=O)n(CC(C)C)n2)cc1F.Cl [Example 8, 4-dimethylaminomethyl-6-(3-fluoro-4-methylphenyl)-2-isobutyl-2H-pyridazin-3-one hydrochloride]
IC50 [1, 4]: 3.45 µM
melting point: 246.5 to 248.5 °C

CCN(CC)Cc1cc(-c2ccc(C)cc2)nn(CC(C)C)c1=O.Cl [Example 47, 4-diethylaminomethyl-2-isobutyl-6-(4-methylphenyl)-2H-pyridazin-3-one hydrochloride]
Solubility (%) [2]: >20%
IC50 [1, 4]: 5.2 µM

CCOC(=O)Nc1cc(-c2ccc(OC)cc2)nn(C/C=C/c2ccc(Cl)cc2)c1=O [compound 1, reference compound]
Dissolution in amount of added water [2]: (insoluble)
Solubility (%) [2]: <0.001%

Cc1cc(-c2cc(CN3CCN(C)CC3)c(=O)n(CCCc3ccc(Cl)cc3)n2)ccc1F [Example 218, 2-[3-(4-chlorophenyl)propyl]-6-(4-fluoro-3-methylphenyl)-4-(4-methyl-1-piperazinyl)methyl-2H-pyridazin-3-one]
IC50 [1, 3]: 6.8 µM

COc1ccc(-c2cc(CN3CCN(CCO)CC3)c(=O)n(CC=Cc3ccc(Cl)cc3)n2)cc1F [Example 210, 2-(4-chlorocinnamyl)-6-(3-fluoro-4-methoxyphenyl)-4-[4-(2-hydroxyethyl)-1-piperazinyl]methyl-2H-pyridazin-3-one]
IC50 [1, 3]: 3.1 µM

COc1ccc(-c2cc(CCCN)c(=O)n(CC3CC3)n2)cc1F [Example 216, 4-(3-aminopropyl)-2-cyclopropylmethyl-6-(3-fluoro-4-methoxyphenyl)-2H-pyridazin-3-one]
IC50 [1, 4]: 1.14 µM

COc1ccc(-c2cc(CN)c(=O)n(Cc3ccc(F)cc3)n2)cc1F.Cl [Example 195, 4-aminomethyl-2-(4-fluorobenzyl)-6-(3-fluoro-4-methoxyphenyl)-2H-pyridazin-3-one hydrochloride]
Solubility (%) [2]: 0.2%

COc1ccc(-c2cc(C(=O)O)c(=O)n(C/C=C/c3ccc(Cl)cc3)n2)cc1 [compound 4, reference compound]
Dissolution in amount of added water [2]: (insoluble)
Solubility (%) [2]: <0.001%

COc1ccc(-c2cc(CN3CCN(C)CC3)c(=O)n(CCCc3ccccc3Cl)n2)cc1F [Example 241, 2-[3-(2-chlorophenyl)propyl]-6-(3-fluoro-4-methoxyphenyl)-4-(4-methyl-1-piperazinyl)methyl-2H-pyridazin-3-one]
IC50 [1, 3]: 6.4 µM

Cc1cc(-c2cc(CN(C)C)c(=O)n(CC(C)C)n2)ccc1F.Cl [Example 89, 4-dimethylaminomethyl-6-(4-fluoro-3-methylphenyl)-2-isobutyl-2H-pyridazin-3-one hydrochloride]
Solubility (%) [2]: >20%
IC50 [1, 4]: 5.5 µM

COc1ccc(-c2cc(CN3CCNCC3)c(=O)n(Cc3ccc(F)cc3)n2)cc1F [Example 192, 2-(4-fluorobenzyl)-6-(3-fluoro-4-methoxyphenyl)-4-(1-piperazinyl)methyl-2H-pyridazin-3-one]
IC50 [1, 4]: 0.64 µM
melting point: 142 to 143 °C

COc1ccc(-c2cc(CN3CCN(C)CC3)c(=O)n(Cc3ccc(F)cc3)n2)cc1F [Example 189, 2-(4-fluorobenzyl)-6-(3-fluoro-4-methoxyphenyl)-4-(4-methyl-1-piperazinyl)methyl-2H-pyridazin-3-one]
IC50 [1, 4]: 0.87 µM
melting point: 112 to 113 °C

Cc1ccc(-c2cc(CN(CCO)CCO)c(=O)n(CC(C)C)n2)cc1 [Example 49, 4-N,N-bis(2-hydroxyethyl)aminomethyl-6-(4-methylphenyl)-2-isobutyl-2H-pyridazin-3-one hydrochloride]
IC50 [1, 5]: 3.53 µM

Cc1ccc(-c2cc(CN(C)C)c(=O)n(CC(C)C)n2)cc1.Cl [Example 45, 4-dimethylaminomethyl-2-isobutyl-6-(4-methylphenyl)-2H-pyridazin-3-one hydrochloride]
Solubility (%) [2]: 4%
IC50 [1, 4]: 6.21 µM
